Experimental data reported in publication PMC7051184, “C9orf72 arginine-rich dipeptide repeat proteins disrupt karyopherin-mediated nuclear import” (eLife, 2020).
Where a SMILES comes first, the peptide text is derived from it.

How the values were obtained:
Nsp1(497-609) = experiment: Bead halo assay, GST-Nsp1(497-609) FxFG domain; assay type: binding, S. cerevisiae; details: AF488-labeled
Protocol: The expression of GST- Nsp1(497-609) in BL21(DE3) cells grown in LB media was induced at OD600nm = 0.4–0.6, followed by incubation at 37°C for 3–5 hr. The GST-tagged S. cerevisiae pGEX-Nup100(1-307), Nup100(1-610), Nup116(348-458) and Nup116(348-458)F > A were expressed in T7 Shuffle cells (NEB) that were grown in Dynamite media ([Taylor et al., 2017]) until OD600nm = 0.9 before induction with IPTG at 37°C for 3 hr. All the GST-tagged Nup fragments were purified using glutathione-sepharose affinity chromatography, as described for the GST-GFP-NLS above, and dialyzed into PBS before storage.
The bead halo assay was carried out as described with minor modifications ([Patel and Rexach, 2008]), using […] polystyrene beads coated with neutravidin (for biotinylated proteins) or glutathione (for GST-fusion proteins) (Spherotech, Lake Forest, IL). Beads were coated overnight at 4°C at saturating concentrations per manufacturers’ instructions and rinsed 2x in binding buffer (20 mM HEPES [pH 7.4], 150 mM KOAc, 2 mM Mg(OAc)2, 1 mM DTT, 0.1% Tween-20). Immediately prior to the assay, fluorescent bait proteins and beads were combined with 4x assay buffer (40 mM EDTA, 40 mg/ml BSA, 500 mM NaCl, and 0.2% Tween) to a total of 40 µL per well, in optical glass-bottom 96-well plates (Cellvis, Mountain View, CA). […]

hnRNPA2/B1 = experiment: DPR aggregation assay and western blot, hnRNPA2/B1; assay type: biochemical, human; details: normalized to untreated HEK cells on the same membrane
Protocol: (§1) Supernatant and pellet fractions (for all 5 DPRs, and control/buffer only) were prepared as in the nuclear transport assays, by adding 100 µM 10mers to 2.5 mg/ml HEK lysate in 100 µL TRB. Supernatants were boiled in Laemmli (BioRad) for 5 min. Pellets were boiled for 15 min followed by sonication in order to fully disperse aggregates for SDS-PAGE. Equal volumes of supernatant and pellet fractions were run on 4–12% Bolt Bis-Tris Plus gels (ThermoFisher), transferred to nitrocellulose membrane using an iBlot2 dry blotting system (ThermoFisher). Protein loading was analyzed by BLOT-Faststain (G-biosciences, St. Louis, MO), according to the manufacterers’ instructions. For immunodetection, membranes were blocked with 5% non-fat milk in TBST and probed by sequential incubation with the primary antibodies as detailed in the table below. Detection was by HRP-conjugated secondary antibodies/chemiluminescence using an ImageQuant LAS 4000 system (GE, Chicago, IL). To permit sequential probing of membranes without stripping, signals were quenched by incubation with prewarmed 30% H20_2 for 20 min ([Sennepin et al., 2009]). Band intensities were measured by ImageQuant software. For pellet vs. supernatant fractions, all were expressed as percent untreated control. For blots in Figure 1E, samples were run on 4–20% SDS PAGE minigels (ThermoFisher) and blotted to PVDF membranes (Immun-Blot PVDF, Bio-Rad) using the Bio-Rad TransBlot Turbo apparatus, and probed as above. The chemiluminescence signal was captured with a Bio-Rad ChemiDoc XRS+ digital imaging system.

[1] = Bead halo assay, bare neutravidin beads (non-specific control); details: AF488-labeled, 200 nM, binding buffer
Protocol: The bead halo assay was carried out as described with minor modifications ([Patel and Rexach, 2008]), using […] polystyrene beads coated with neutravidin (for biotinylated proteins) or glutathione (for GST-fusion proteins) (Spherotech, Lake Forest, IL). Beads were coated overnight at 4°C at saturating concentrations per manufacturers’ instructions and rinsed 2x in binding buffer (20 mM HEPES [pH 7.4], 150 mM KOAc, 2 mM Mg(OAc)2, 1 mM DTT, 0.1% Tween-20). Immediately prior to the assay, fluorescent bait proteins and beads were combined with 4x assay buffer (40 mM EDTA, 40 mg/ml BSA, 500 mM NaCl, and 0.2% Tween) to a total of 40 µL per well, in optical glass-bottom 96-well plates (Cellvis, Mountain View, CA). Reactions were allowed to equilibrate at room temperature for a minimum of 30 min prior to imaging at 100x on an LSM800 confocal microscope (Zeiss, Oberkochen, Germany). Intensity profiles comparing the maximum rim intensity to the background were plotted in ImageJ (NIH) by an investigator blinded to experimental conditions.

RCC1 = experiment: DPR aggregation assay and western blot, RCC1 (negative control); assay type: biochemical, human; details: 100 µM 10mer in 2.5 mg/ml HEK lysate, normalized to untreated HEK
Protocol: as §1

[2] = biological target: importin β-mediated nuclear import of Rango (Homo sapiens, UniProt Q14974); experiment: Permeabilized cell nuclear import assay, Rango, HeLa; assay type: cell-based
Sequence of importin β-mediated nuclear import of Rango (Q14974 whole entry): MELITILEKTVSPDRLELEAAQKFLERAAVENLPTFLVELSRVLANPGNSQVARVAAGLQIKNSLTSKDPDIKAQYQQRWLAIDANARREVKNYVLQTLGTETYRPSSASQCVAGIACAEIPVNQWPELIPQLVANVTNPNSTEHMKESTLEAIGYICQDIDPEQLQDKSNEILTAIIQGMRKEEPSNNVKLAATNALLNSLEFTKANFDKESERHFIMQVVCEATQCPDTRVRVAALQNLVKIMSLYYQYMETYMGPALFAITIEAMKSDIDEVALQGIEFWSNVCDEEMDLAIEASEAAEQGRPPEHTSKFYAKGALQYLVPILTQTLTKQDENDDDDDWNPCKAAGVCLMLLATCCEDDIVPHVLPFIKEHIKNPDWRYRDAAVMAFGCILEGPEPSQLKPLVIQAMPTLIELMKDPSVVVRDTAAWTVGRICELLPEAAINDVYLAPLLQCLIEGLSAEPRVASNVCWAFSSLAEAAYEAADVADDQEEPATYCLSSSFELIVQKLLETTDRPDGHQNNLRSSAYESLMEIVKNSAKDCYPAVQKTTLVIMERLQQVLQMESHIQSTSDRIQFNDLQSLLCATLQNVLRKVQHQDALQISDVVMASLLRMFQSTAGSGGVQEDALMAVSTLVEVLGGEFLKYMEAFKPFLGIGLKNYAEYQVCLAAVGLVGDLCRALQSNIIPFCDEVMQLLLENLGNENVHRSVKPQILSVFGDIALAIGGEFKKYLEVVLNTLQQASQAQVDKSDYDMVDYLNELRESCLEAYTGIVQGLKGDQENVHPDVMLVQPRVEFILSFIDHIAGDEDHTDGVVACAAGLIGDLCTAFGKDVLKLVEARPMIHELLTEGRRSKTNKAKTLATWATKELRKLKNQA

Compound	FG-binding with added unlabeled importin β (Nsp1(497-609))	hnRNPA2/B1 band density, % control (hnRNPA2/B1; Pellet, Blot 1) [% control]	hnRNPA2/B1 band density, % control (hnRNPA2/B1; Pellet, Blot 2) [% control]	hnRNPA2/B1 band density, % control (hnRNPA2/B1; Supernatant, Blot 1) [% control]	hnRNPA2/B1 band density, % control (hnRNPA2/B1; Supernatant, Blot 2) [% control]	Binding to bare beads [1]	RCC1 band density, Pellet (RCC1; Blot 1) [% control]	RCC1 band density, Supernatant (RCC1; Blot 1) [% control]	RCC1 band density, Pellet (RCC1; Blot 2) [% control]	RCC1 band density, Supernatant (RCC1; Blot 2) [% control]	NCT inhibition in permeabilized HeLa [2]
N=C(N)NCCC[C@H](NC(=O)[C@@H]1CCCN1C(=O)[C@H](CCCNC(=N)N)NC(=O)[C@@H]1CCCN1C(=O)[C@H](CCCNC(=N)N)NC(=O)[C@@H]1CCCN1C(=O)[C@H](CCCNC(=N)N)NC(=O)[C@@H]1CCCN1C(=O)[C@H](CCCNC(=N)N)NC(=O)[C@@H]1CCCN1C(=O)[C@H](CCCNC(=N)N)NC(=O)[C@@H]1CCCN1C(=O)[C@H](CCCNC(=N)N)NC(=O)[C@@H]1CCCN1C(=O)[C@H](CCCNC(=N)N)NC(=O)[C@@H]1CCCN1C(=O)[C@H](CCCNC(=N)N)NC(=O)[C@@H]1CCCN1C(=O)[C@H](CCCNC(=N)N)NC(=O)[C@@H]1CCCN1)C(=O)O [PR10] (H-PRPRPRPRPRPRPRPRPRPR-OH; N-terminus and C-terminus assumed)	FG-binding could be augmented	426.4	309.1	53.5	56.7	modest non-specific binding	27.7	103.7	109.0	124.4	
GA10: Synthetic 10-mer GA dipeptide repeat with C-terminal lysine and cysteine (GAGAGAGAGAGAGAGAGAGAKC)											did not see NCT inhibition
